According to US20130337579A1, “Methods for Determining Protein Ligand Binding” (UNIVERSITY OF MARYLAND, COLLEGE PARK, priority 2010, published 2013):

What was measured:
E. coli CRP = molecular target: T1, E. coli CRP (Escherichia coli, UniProt P0ACJ8); experiment: DRaCALA binding of radiolabeled nucleotides to purified CRP; details: 20 μM purified protein; 500 nM 14C-cAMP, 4 nM 32P-ATP or 4 nM 32P-cdiGMP
T1 construct: His; made in house
Protocol: (§1) Radiolabeled ligands were incubated with each of the proteins and the mixtures were spotted on nitrocellulose. After spreading by capillary action, membranes were dried and quantitated by phosphorimager. […] The specificity of Alg44PilZ binding to cdiGMP was further tested by competition with excess unlabeled nucleotides (400-fold molar excess relative to the Alg44PilZ protein).
(§2) Protein or whole cell lysates in 1× cdiGMP binding buffer (20 μl) was mixed with 4 nM of radiolabeled nucleotide and allowed to incubate for 10 minutes at room temperature. Radiolabeled nucleotide was competed away by cold nucleotides in concentrations and for times indicated. Purified proteins were tested in technical replicates. Whole cell lysates in FIG. 4 and FIG. 12 were tested in biological triplicates. Whole cell lysates in FIG. 5 were tested in technical replicates. These mixtures were pipetted (2.5-5 μl) onto dry, untreated nitrocellulose (GE Healthcare) in triplicate and allowed to dry completely before quantification. An FLA7100 Fujifilm Life Science Phosphorimager was used to detect luminescence following a 5-minute exposure of blotted nitrocellulose to phosphorimager film. Data was quantified using Fujifilm Multi Gauge software v3.0.

E. coli NtrB = E. coli NtrB (Escherichia coli, UniProt P0AFB5); experiment: DRaCALA binding of radiolabeled nucleotides to purified NtrB; details: 20 μM purified protein; 500 nM 14C-cAMP, 4 nM 32P-ATP or 4 nM 32P-cdiGMP
Protocol: as §1, §2

HisMBP-Alg44PilZ = molecular target: T2, HisMBP-Alg44PilZ (Pseudomonas aeruginosa, UniProt Q9HY69); experiment: DRaCALA competition of cold nucleotides with 32P-cdiGMP binding to HisMBP-Alg44PilZ; set-up: species or system P. aeruginosa; details: 4 nM 32P-cdiGMP
T2 construct: His-MBP-Alg44PilZ was varied from 100 μM to 6 nM; made in house; host or cells: E. coli BL21(DE3)
Protocol: FIG. 2. Detection of specific protein-ligand interactions by DRaCALA. (A) DRaCALA images of interactions between purified proteins (20 μM) incubated with 500 nM ^14C-cAMP, 4 nM ^32P-ATP, or 4 nM ^32P-cdiGMP. Protein-ligand mixtures were spotted on nitrocellulose and allowed to dry prior to imaging using a Fuji FLA7100 phosphorimager. Cognate protein-nucleotide combinations are indicated by arrowheads. MBP was used as a negative control. (B) DRaCALA images of competition assays assessing the ability of 1 mM of the indicated cold nucleotides to compete with binding interactions between 4 nM ^32P-cdiGMP and 2.5 μM HisMBP-Alg44PilZ. (C) Graph of fraction bound for each sample in […] with averages indicated by a horizontal bar. NC indicates no competitor. P values were determined by a Student's t-test for significant differences when compared to the no-competitor (NC) control for three independent experiments. For total intensity of each DRaCALA spot in FIGS. 2A and 2B, see Tables 1 and 2, respectively.
Radiolabeled ligands were incubated with each of the proteins and the mixtures were spotted on nitrocellulose. After spreading by capillary action, membranes were dried and quantitated by phosphorimager. […] Each of the radiolabel signals from MBP mixtures was distributed by capillary action (FIG. 2A). […] The specificity of Alg44PilZ binding to cdiGMP was further tested by competition with excess unlabeled nucleotides (400-fold molar excess relative to the Alg44PilZ protein). Alg44PilZ binding to ^32P-cdiGMP was abolished by cdiGMP, but not by cGMP, GMP, GDP, GTP, ATP, CTP or UTP as was previously described (FIG. 2B). The FB for cdiGMP was 0.31±0.07, which was reversed by competition with unlabeled cdiGMP to the background level of 0.04±0.01 (FIG. 2C).
as §2

[1] = molecular target: T3, Alg44PilZ expressed in E. coli BL21(DE3) (Pseudomonas aeruginosa, UniProt Q9HY69); experiment: DRaCALA of whole cell lysates of E. coli BL21(DE3) expressing Alg44PilZ; assay type: binding, P. aeruginosa
T3 construct: E. coli BL21(DE3) expressing Alg44PilZ and variants; expressed in transfected cells; host or cells: E. coli BL21(DE3), whole cell lysate
Excerpt: A major limitation of most biochemical assays is the requirement for purified protein. We asked whether DRaCALA could be applied to crude extracts to overcome this limitation. Alg44PilZ binding to cdiGMP requires a number of conserved residues, including R17, R21, D44 and S46, in the PilZ domain of the protein. E. coli BL21(DE3) expressing Alg44PilZ and variants with R21A, D44A, S46A, and R17A/R21A substitutions were lysed and tested for binding to cdiGMP using DRaCALA. […] Only the whole cell lysates from E. coli expressing wild-type Alg44PilZ sequestered ^32P-cdiGMP (FIG. 4A). […] A significant difference between the bound fractions for cdiGMP or GTP competition experiments was detected for the wild-type Alg44PilZ, but not for the PilZ domain mutants (FIGS. 4A and 4B). […]
Protein or whole cell lysates in 1× cdiGMP binding buffer (20 μl) was mixed with 4 nM of radiolabeled nucleotide and allowed to incubate for 10 minutes at room temperature. […] These mixtures were pipetted (2.5-5 μl) onto dry, untreated nitrocellulose (GE Healthcare) in triplicate and allowed to dry completely before quantification. An FLA7100 Fujifilm Life Science Phosphorimager was used to detect luminescence following a 5-minute exposure of blotted nitrocellulose to phosphorimager film. Data was quantified using Fujifilm Multi Gauge software v3.0. […]

PelD = experiment: DRaCALA of whole cell lysates of E. coli BL21(DE3) expressing PelD; assay type: binding, P. aeruginosa; details: PelD with or without MBP tag
Protocol: FIG. 10. Binding of cdiGMP to whole cell lysates expressing soluble or insoluble cdiGMP binding proteins. (A) BL21(DE3) cells expressing the indicated proteins were analyzed by PAGE and coomassie staining of whole cell (W) and soluble (S) fractions. Arrows indicate the overexpressed protein of the correct molecular weight in whole cell lysates. Molecular weights of proteins are indicated on the left in kilodaltons. (B) Spots of BL21 cells overexpressing the indicated proteins were assayed for cdiGMP binding by DRaCALA. (C) Quantification of the data shown in (B). (D) Binding of ^32P-cdiGMP to various dilutions of lysates of BL21(DE3) cells expressing the indicated proteins.
A major limitation of most biochemical assays is the requirement for purified protein. We asked whether DRaCALA could be applied to crude extracts to overcome this limitation. Alg44PilZ binding to cdiGMP requires a number of conserved residues, including R17, R21, D44 and S46, in the PilZ domain of the protein. E. coli BL21(DE3) expressing Alg44PilZ and variants with R21A, D44A, S46A, and R17A/R21A substitutions were lysed and tested for binding to cdiGMP using DRaCALA. […] A significant difference between the bound fractions for cdiGMP or GTP competition experiments was detected for the wild-type Alg44PilZ, but not for the PilZ domain mutants (FIGS. 4A and 4B). […]

[2] = tested on: lysates from various organisms or tissues; experiment: DRaCALA analysis of cdiGMP binding by lysates from various organisms or tissues

T2 sequence (Q9HY69 16-116): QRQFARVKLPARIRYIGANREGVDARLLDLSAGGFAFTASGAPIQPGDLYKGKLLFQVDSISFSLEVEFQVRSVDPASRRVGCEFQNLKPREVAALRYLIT
T3 sequence (Q9HY69 16-116): as above
Sequence of E. coli NtrB (P0AFB5 whole entry): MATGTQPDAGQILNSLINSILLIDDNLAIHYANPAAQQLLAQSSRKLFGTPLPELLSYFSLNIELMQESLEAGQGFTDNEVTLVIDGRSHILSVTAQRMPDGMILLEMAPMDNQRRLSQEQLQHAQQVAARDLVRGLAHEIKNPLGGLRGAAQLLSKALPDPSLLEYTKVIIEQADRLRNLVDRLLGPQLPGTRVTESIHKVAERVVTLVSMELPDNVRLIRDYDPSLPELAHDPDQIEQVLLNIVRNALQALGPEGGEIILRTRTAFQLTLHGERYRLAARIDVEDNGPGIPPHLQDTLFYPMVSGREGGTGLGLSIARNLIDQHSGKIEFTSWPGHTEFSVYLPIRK
T1 sequence (P0ACJ8 whole entry): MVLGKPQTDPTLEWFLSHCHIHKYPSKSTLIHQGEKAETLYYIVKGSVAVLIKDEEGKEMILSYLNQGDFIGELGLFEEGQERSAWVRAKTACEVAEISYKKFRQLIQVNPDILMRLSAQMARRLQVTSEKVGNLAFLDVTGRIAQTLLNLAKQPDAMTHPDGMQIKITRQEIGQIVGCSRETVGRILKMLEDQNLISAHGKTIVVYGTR

## Nc1nc2c(ncn2[C@@H]2O[C@@H]3CO[P@](=O)(O)O[C@H]4[C@@H](O)[C@H](n5cnc6c(=O)[nH]c(N)nc65)O[C@@H]4CO[P@](=O)(O)O[C@H]3[C@H]2O)c(=O)[nH]1 [cdiGMP, cyclic-di-GMP]
E. coli CRP
  binding to CRP (sequestration of radiolabel signal): did not bind
E. coli NtrB
  binding to NtrB (sequestration of radiolabel signal): not
HisMBP-Alg44PilZ; 1 mM unlabeled cdiGMP
  fraction bound (FB) after competition with unlabeled cdiGMP: 0.04±0.01
HisMBP-Alg44PilZ; no competitor
  fraction bound (FB): 0.31±0.07
HisMBP-Alg44PilZ; 1 mM cold nucleotide (400-fold molar excess over protein)
  Alg44PilZ binding to 32P-cdiGMP abolished by unlabeled nucleotide: abolished
[1]; Alg44PilZ with or without MBP tag, BL21 whole cell extracts
  specific sequestration by whole cell extracts with soluble or insoluble protein: specifically sequester
[1]; E. coli BL21(DE3) expressing wild-type Alg44PilZ
  sequestration of 32P-cdiGMP by whole cell lysate: sequestered
PelD
  specific sequestration by whole cell extracts with soluble or insoluble protein: specifically sequester
[2]; mammalian tissue extracts from rodent and human cell lines
  BC (non-specific binding): > 0.233
[2]; whole cell extracts of protozoa, fungi and nematodes
  BSp: below 1.17
